Usually GI50 stands for the concentration at which growth is held to half of that of the control.

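96-well plates; 48 h exposure; 5 concentrations. Endpoints by linear interpolation between flanking doses. Not reached: highest tested concentration assigned. GI50: concentration for 50% inhibition of growth.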 The source made the active and inactive calls. Cut-off read from the data, not from the text of the source: active = GI50 up to about 1.1 µM and inactive = higher. Some results are limits rather than exact numbers.

Test systems include A498; HCC 2998; HOP-92; MDA-MB-231; MDA-MB-435; MOLT-4; NCI-H23; NCI-H460; NCI/ADR-RES; OVCAR-8; RXF 393; SF-539; SK-MEL-28; SNB-75; SW-620; UACC-257; COLO 205; SNB-19; UACC-62; Malme-3M.
Experiment in all cases: DTP human tumour cell line panel, 48 h

For the compound `COc1ccc(-c2nc3cc(C(F)(F)F)ccc3n2CC2CCCN3CCCCC23)cc1` (configuration not stated), the GI50 is 13.4 µM (inactive) with A498; 12.1 µM (inactive) in the test on HCC 2998; 14.8 µM (inactive) with HOP-92; 14.3 µM (inactive) in the test on MDA-MB-231; 15.8 µM (inactive) in the test with MDA-MB-435; 12.7 µM (inactive) in the test with MOLT-4. The GI50 is 15.6 µM (inactive) with NCI-H23; 15.8 µM (inactive) in the test with NCI-H460; 14.1 µM (inactive) in the test with NCI/ADR-RES; 17.1 µM (inactive) with OVCAR-8; 16.6 µM (inactive) with RXF 393; 16.8 µM (inactive) in the test with SF-539. In addition, the GI50 in the test on SK-MEL-28 was 14.9 µM (inactive); in the test with SNB-75, 15.5 µM (inactive); in the test on SW-620, 15.2 µM (inactive); in the test with UACC-257 it was 13.8 µM (inactive).

As to `COC(=O)c1ccc(CCC2=CC(=O)C=CC2=O)cc1`, the GI50 is 18.7 µM (inactive) in the test on A498; 7.03 µM (inactive) in the test with COLO 205; 16.7 µM (inactive) with HCC 2998; 4.43 µM (inactive) in the test with HOP-92; 19.4 µM (inactive) in the test on MDA-MB-231; 11.7 µM (inactive) in the test on MDA-MB-435. Besides, the GI50 with MOLT-4 is 1.63 µM (inactive); with NCI-H23, 17.9 µM (inactive); in the test with NCI-H460 it was 19 µM (inactive); in the test on NCI/ADR-RES, 20.7 µM (inactive); in the test on OVCAR-8 it was 17.4 µM (inactive); in the test with RXF 393 it was 12.5 µM (inactive). The GI50 is 11.5 µM (inactive) in the test with SF-539; 9.42 µM (inactive) with SK-MEL-28; 22.4 µM (inactive) in the test on SNB-19; 16.3 µM (inactive) in the test with SNB-75; 4.52 µM (inactive) in the test on SW-620; 9.08 µM (inactive) in the test on UACC-257. Also, in the test on UACC-62, the GI50 is 13.7 µM (inactive).

In the case of `C/C=C(\C)C(=O)OC1CC(OC(C)=O)C2(C(=O)OC)COC3C2C1(C)C1C2(C(=O)OC)OCC1(C3O)C1(O)C3CC(C4(O)C=COC4O3)C1(C)O2` (configuration not stated), the GI50 was > 100 µM (inactive) in the test with A498; > 100 µM (inactive) in the test on COLO 205; 62.5 µM (inactive) in the test with HCC 2998; > 100 µM (inactive) with HOP-92; > 100 µM (inactive) in the test on MDA-MB-231; 40.8 µM (inactive) with MDA-MB-435. The GI50 in the test on MOLT-4, in the test on NCI-H23, in the test on NCI-H460, with NCI/ADR-RES, with OVCAR-8 and in the test on RXF 393 was > 100 µM (inactive) throughout. Further, the GI50 with SF-539, in the test on SK-MEL-28, in the test on SNB-75, with SW-620, with UACC-257 and with UACC-62 was > 100 µM (inactive) each time.

For `COc1cc(C23OCC(Cc4cc5c(cc42)OCO5)C3CO)cc(OC)c1OC` (configuration not stated), the GI50 in the test on A498 was 5.61 µM (inactive); in the test on COLO 205 it was 2.55 µM (inactive); with HCC 2998, 0.24 µM (active); in the test with HOP-92, > 100 µM (inactive); with MDA-MB-231, 6.4 µM (inactive); with MDA-MB-435 it was 0.119 µM (active). In addition, the GI50 is 13.2 µM (inactive) in the test on MOLT-4; 6.14 µM (inactive) with Malme-3M; 3.45 µM (inactive) with NCI-H23; 3.23 µM (inactive) in the test with NCI-H460; 1.84 µM (inactive) in the test on NCI/ADR-RES; 4.14 µM (inactive) with OVCAR-8. Further, the GI50 in the test with RXF 393 is 2.02 µM (inactive); in the test with SF-539 it was 2.52 µM (inactive); with SK-MEL-28, > 100 µM (inactive); in the test with SNB-19, 3.14 µM (inactive); in the test with SNB-75, 2.23 µM (inactive); in the test on SW-620, 3.11 µM (inactive). In the test with UACC-257, the GI50 is > 100 µM (inactive).

These data come from ChEMBL document CHEMBL1201862, “PubChem BioAssay data set” (2004).
